The results in this text go back to PMC9354042, “Discovery of BRAF/HDAC Dual Inhibitors Suppressing Proliferation of Human Colorectal Cancer Cells” (Frontiers in Chemistry, 2022).

One experiment deals with T1, HDAC1 (Homo sapiens, UniProt Q13547).
T1 construct: purchased BPS Bioscience
Kind of experiment: HDAC1 fluorescent-based enzymatic activity assay. Conditions: Table 1; read-out: Enzymatic IC50 HDAC1. It is filed as biochemical. On the procedure: (§1) The purified recombinant Human HDACs and their corresponding substrates were purchased from BPS Bioscience (BPS Bioscience Inc., United States). The assays were carried out in a 384-well format using the BPS fluorescent–based HDAC activity assay according to the manufacturer’s protocol. In brief, […] of the HDAC reaction mixture was composed of HDAC assay buffer, […] BSA, serial diluted test compounds, appropriate concentration of HDACs, and […] fluorogenic substrate, the mixture was incubated at 37°C for 60 min, and then stopped by the addition of developer containing trypsin and TSA. After 20 min of incubation, the fluorescence was detected at the excitation wavelength of 360 nm and the emission wavelength of 460 nm using the EnVision Multilabel Reader (PerkinElmer Inc., United States). The analytical software, GraphPad Prism 5.0 (GraphPad Software, Inc., United States) was used to generate IC50 value via non-linear regression analysis.

For another experiment, the target named is T2, BRAF^V600E (Homo sapiens, UniProt P15056, V600E).
T2 construct: purchased Invitrogen
The experiment is described as follows: BRAF V600E enzymatic activity, FRET-based Z'-Lyte kinase assay. The format is biochemical. How it is done: The experiments were performed according to the instructions of the manufacturer. […] For each assay, 10 μl kinase reactions were added to 384-well plate, mixed thoroughly, and incubated for 1 hour at room temperature. Then, a 5 μl development solution was added to each well and the plate was incubated for another 1 h at room temperature. Then, a 5 μl stop reagent was loaded to stop the reaction. For the control setting, a 5 μl phospho-peptide solution instead of kinase/peptide mixture was used as 100% phosphorylation control. […] The plate was measured on an EnVision Multilabel Reader (Perkin-Elmer). Curve fitting and data presentations were performed using GraphPad Prism, version 5.0. Every experiment was repeated at least two times.

The next experiment has as its system HCT116 cells. The experiment is described as follows: Antiproliferation CCK-8 assay, HCT116. It is filed as cell-based. Conditions: Homo sapiens, HCT-116; CCK-8, 72 h, HCT116 (wild-type BRAF); means of three independent experiments; read-out: Cellular IC50 HCT116. On the procedure: (§2) HCT116 and HT-29 cells were obtained from the Shanghai Cell Bank (Type Culture Collection (TCC), Chinese Academy of Sciences) and cultured in DMEM (10–013-CVR, corning) supplemented with 10% fetal bovine serum (04-001-1A, BI), 1% penicillin/streptomycin (03-031-1B, BI).
(§3) The cells in the logarithmic phase were placed in 96-well plates (∼3000 cells/well) in a complete medium. After incubation overnight, the cells were exposed to the corresponding compounds or vehicle control at the indicated concentration for a further 72 h. Cell proliferation was evaluated using Cell Counting Kit 8 (CCK8, CK04, Dojindo Laboratories, Kumamoto, Japan). OD450 and OD650 were determined using a microplate reader. Absorbance rate (A) for each well was calculated as OD450 −OD650. […] Each IC50 value is expressed as mean ± SD. As is the absorbance rate of the test compound well, Ac is the absorbance rate of the well without either the cell or test compound, and Ab is the absorbance rate of the well with the cell and vehicle control.
Background: Tetrazolium assays rely on reduction of a dye to a coloured formazan, in cell work by metabolically active cells.

The target in the next experiment is T3, HDAC6 (Homo sapiens, UniProt Q9UBN7).
T3 construct: purchased BPS Bioscience
T3 sequence (Q9UBN7 1-1215): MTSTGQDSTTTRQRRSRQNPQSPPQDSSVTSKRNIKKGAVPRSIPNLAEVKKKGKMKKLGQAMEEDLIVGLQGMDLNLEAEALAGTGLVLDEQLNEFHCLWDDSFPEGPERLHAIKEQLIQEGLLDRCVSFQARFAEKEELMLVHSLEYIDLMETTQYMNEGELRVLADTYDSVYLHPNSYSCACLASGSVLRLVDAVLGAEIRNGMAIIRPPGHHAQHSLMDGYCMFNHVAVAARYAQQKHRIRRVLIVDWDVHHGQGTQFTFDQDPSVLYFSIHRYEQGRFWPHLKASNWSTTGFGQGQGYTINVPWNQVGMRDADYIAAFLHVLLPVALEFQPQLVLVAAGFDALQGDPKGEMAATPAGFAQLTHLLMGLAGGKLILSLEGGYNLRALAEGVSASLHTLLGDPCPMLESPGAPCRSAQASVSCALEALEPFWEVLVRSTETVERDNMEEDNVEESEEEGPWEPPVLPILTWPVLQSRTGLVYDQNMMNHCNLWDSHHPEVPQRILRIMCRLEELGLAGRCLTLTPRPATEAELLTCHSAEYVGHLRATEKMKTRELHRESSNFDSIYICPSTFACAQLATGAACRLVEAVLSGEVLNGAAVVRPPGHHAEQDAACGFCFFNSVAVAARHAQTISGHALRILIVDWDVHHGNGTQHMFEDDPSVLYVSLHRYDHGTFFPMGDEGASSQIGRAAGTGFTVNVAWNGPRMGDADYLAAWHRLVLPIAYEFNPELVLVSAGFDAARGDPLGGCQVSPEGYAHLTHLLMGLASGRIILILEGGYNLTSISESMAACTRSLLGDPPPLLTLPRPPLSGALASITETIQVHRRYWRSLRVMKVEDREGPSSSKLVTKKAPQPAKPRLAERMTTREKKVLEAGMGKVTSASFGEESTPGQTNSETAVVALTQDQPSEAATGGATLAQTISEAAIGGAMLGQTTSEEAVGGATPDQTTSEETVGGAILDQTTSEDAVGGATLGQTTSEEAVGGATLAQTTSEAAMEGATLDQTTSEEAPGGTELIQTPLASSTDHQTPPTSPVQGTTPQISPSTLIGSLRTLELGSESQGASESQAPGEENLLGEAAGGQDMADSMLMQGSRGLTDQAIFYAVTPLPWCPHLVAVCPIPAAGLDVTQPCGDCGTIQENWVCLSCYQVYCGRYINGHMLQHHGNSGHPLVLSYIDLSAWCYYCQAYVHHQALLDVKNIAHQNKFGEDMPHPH
Kind of experiment: HDAC6 fluorescent-based enzymatic activity assay. It is filed as biochemical. The conditions noted are these: Table 1; read-out: Enzymatic IC50 HDAC6. How it is done: as §1

A further experiment deals with HT-29 cells. The experiment is described as follows: Antiproliferation CCK-8 assay, HT-29. Conditions: Homo sapiens; CCK-8, 72 h, HT-29 (BRAF^V600E); means of three independent experiments; read-out: Cellular IC50 HT-29. It is filed as cell-based. How it is done: as §2, §3

T2 sequence (P15056 whole entry V600E): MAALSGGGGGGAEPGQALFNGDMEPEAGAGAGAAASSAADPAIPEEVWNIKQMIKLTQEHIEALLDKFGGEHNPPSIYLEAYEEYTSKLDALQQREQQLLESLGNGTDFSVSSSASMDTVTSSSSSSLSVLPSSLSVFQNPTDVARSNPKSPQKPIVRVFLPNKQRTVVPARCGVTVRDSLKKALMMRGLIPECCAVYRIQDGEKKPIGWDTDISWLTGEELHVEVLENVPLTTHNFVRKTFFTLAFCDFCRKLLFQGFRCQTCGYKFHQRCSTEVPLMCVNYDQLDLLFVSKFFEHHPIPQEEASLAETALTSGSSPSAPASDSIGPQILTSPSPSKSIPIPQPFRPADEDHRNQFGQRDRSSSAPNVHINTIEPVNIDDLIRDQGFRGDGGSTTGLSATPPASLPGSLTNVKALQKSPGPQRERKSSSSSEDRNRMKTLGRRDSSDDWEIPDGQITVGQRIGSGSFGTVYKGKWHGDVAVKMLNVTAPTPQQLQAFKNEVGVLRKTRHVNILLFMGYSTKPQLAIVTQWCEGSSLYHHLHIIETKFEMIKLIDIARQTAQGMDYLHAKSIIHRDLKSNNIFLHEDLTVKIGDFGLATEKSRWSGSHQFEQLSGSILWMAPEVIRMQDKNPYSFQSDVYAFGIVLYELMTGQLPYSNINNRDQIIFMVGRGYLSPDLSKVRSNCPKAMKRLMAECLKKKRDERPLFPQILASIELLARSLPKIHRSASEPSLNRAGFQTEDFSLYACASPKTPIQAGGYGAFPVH
T1 sequence (Q13547 whole entry): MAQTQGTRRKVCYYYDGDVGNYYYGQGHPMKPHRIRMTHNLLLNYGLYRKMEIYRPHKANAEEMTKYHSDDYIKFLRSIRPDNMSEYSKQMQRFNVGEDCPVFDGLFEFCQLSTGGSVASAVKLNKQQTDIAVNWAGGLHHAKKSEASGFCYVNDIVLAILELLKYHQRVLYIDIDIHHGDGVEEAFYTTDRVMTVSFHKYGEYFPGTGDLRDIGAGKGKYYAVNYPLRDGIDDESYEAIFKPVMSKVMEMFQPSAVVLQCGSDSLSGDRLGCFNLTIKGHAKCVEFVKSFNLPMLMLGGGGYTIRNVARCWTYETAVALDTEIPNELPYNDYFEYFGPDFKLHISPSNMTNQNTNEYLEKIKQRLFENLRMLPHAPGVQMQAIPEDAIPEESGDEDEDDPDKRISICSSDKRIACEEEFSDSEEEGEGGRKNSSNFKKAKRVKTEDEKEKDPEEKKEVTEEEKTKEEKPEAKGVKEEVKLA

In the case of `CC(C)(C)c1nc(-c2cccc(NS(=O)(=O)c3c(F)cccc3F)c2F)c(-c2ccnc(NCCCCCC(=O)NO)n2)s1` [14a], the IC50 worked out at 679 nM at HDAC1; 3.25 nM at BRAF^V600E; 3000 nM in the experiment with HCT116 cells; 1210 nM on HDAC6; 1000 nM with HT-29 cells.
As to `CC(C)(C)c1nc(-c2cccc(NS(=O)(=O)c3c(F)cccc3F)c2F)c(-c2ccnc(NCCCCCCCC(=O)NO)n2)s1` [14c, 8-{[4-(2-(Tert-Butyl)-4-(3-(2,6-Difluorophenylsulfonamido)-2-Fluorophenyl)Thiazol-5-yl)Pyrimidin-2-yl]Amino}-N-Hydroxyoctanamide], the IC50 at HDAC1 was found to be 312 nM; at BRAF^V600E it was 2.27 nM; in the experiment with HCT116 cells it was 4470 nM; at HDAC6, 128 nM; in the experiment on HT-29 cells it was 880 nM.
Taken in the same sequence, the figures for `CC(C)(C)c1nc(-c2cccc(NS(=O)(=O)c3c(F)cccc3F)c2F)c(-c2ccnc(NCCCCCCCCC(=O)NO)n2)s1` [14d, 9-{[4-(2-(Tert-Butyl)-4-(3-(2,6-Difluorophenylsulfonamido)-2-Fluorophenyl)Thiazol-5-yl)Pyrimidin-2-yl]Amino}-N-Hydroxynonanamide] were 765 nM, 3.82 nM, 3660 nM, 322 nM and 480 nM.
Regarding `Cc1nc(-c2cccc(NS(=O)(=O)c3c(F)cccc3F)c2F)c(-c2ccnc(NCCCCCCC(=O)NO)n2)s1` [14e, 7-{[4-(4-(3-(2,6-Difluorophenylsulfonamido)-2-Fluorophenyl)-2-Methylthiazol-5-yl)Pyrimidin-2-yl]Amino}-N-Hydroxyheptanamide], the IC50 is 42.2 nM on HDAC1; 3.5 nM against BRAF^V600E; 7530 nM with HCT116 cells; 14.6 nM on HDAC6; 6390 nM in the experiment on HT-29 cells.
In the case of `CCc1nc(-c2cccc(NS(=O)(=O)c3c(F)cccc3F)c2F)c(-c2ccnc(NCCCCCCC(=O)NO)n2)s1` [14f, 7-{[4-(4-(3-(2,6-Difluorophenylsulfonamido)-2-Fluorophenyl)-2-Ethylthiazol-5-yl)Pyrimidin-2-yl]Amino}-N-Hydroxyheptanamide], the IC50 turned out to be 61.3 nM at HDAC1; 1.66 nM at BRAF^V600E; 4270 nM with HCT116 cells; 26.5 nM on HDAC6; 1270 nM in the experiment with HT-29 cells.
With `CC(C)c1nc(-c2cccc(NS(=O)(=O)c3c(F)cccc3F)c2F)c(-c2ccnc(NCCCCCCC(=O)NO)n2)s1` [14g, 7-{[4-(4-(3-(2,6-Difluorophenylsulfonamido)-2-Fluorophenyl)-2-Isopropylthiazol-5-yl)Pyrimidin-2-yl]Amino}-N-Hydroxyheptanamide], the IC50 at HDAC1 was 130 nM; at BRAF^V600E, 1.51 nM; in the experiment on HCT116 cells it was 2680 nM; at HDAC6 it was 30 nM; with HT-29 cells it was 990 nM.
`O=C(CCCCCCNc1nccc(-c2sc(C3CC3)nc2-c2cccc(NS(=O)(=O)c3c(F)cccc3F)c2F)n1)NO` [14h, 7-{[4-(2-Cyclopropyl-4-(3-(2,6-Difluorophenylsulfonamido)-2-Fluorophenyl)Thiazol-5-yl)Pyrimidin-2-yl]Amino}-N-Hydroxyheptanamide]: the IC50 at HDAC1 is 49.8 nM; against BRAF^V600E, 1.31 nM; in the experiment with HCT116 cells it was 4710 nM; at HDAC6, 27.1 nM; with HT-29 cells it was 2210 nM.
Taken in the same sequence, the figures for `CCCc1nc(-c2cccc(NS(=O)(=O)c3c(F)cccc3F)c2F)c(-c2ccnc(NCCCCCCC(=O)NO)n2)s1` [14i, 7-{[4-(4-(3-(2,6-Difluorophenylsulfonamido)-2-Fluorophenyl)-2-Propylthiazol-5-yl)Pyrimidin-2-yl]Amino}-N-Hydroxyheptanamide] were 105 nM, 1.07 nM, 3080 nM, 64.6 nM and 970 nM.
For `CC(C)(C)c1nc(-c2cccc(NS(C)(=O)=O)c2F)c(-c2ccnc(NCCCCCCC(=O)NO)n2)s1` [21a, 7-{[4-(2-(Tert-Butyl)-4-(2-Fluoro-3-(Methylsulfonamido)Phenyl)Thiazol-5-yl)Pyrimidin-2-yl]Amino}-N-Hydroxyheptanamide], the IC50 stood at 113 nM at HDAC1; 1.03 nM at BRAF^V600E; 8520 nM with HCT116 cells; 22.2 nM at HDAC6; 5020 nM with HT-29 cells.
Taken in the same sequence, the figures for `CCCS(=O)(=O)Nc1cccc(-c2nc(C(C)(C)C)sc2-c2ccnc(NCCCCCCC(=O)NO)n2)c1F` [21b, 7-{[4-(2-(Tert-Butyl)-4-(2-Fluoro-3-(Propylsulfonamido)Phenyl)Thiazol-5-yl)Pyrimidin-2-yl]Amino}-N-Hydroxyheptanamide] were 432 nM, 1.71 nM, 5440 nM, 72.1 nM and 780 nM.
In the case of `Cc1nc(-c2cccc(NS(C)(=O)=O)c2F)c(-c2ccnc(NCCCCCCC(=O)NO)n2)s1` [21d, 7-{[4-(4-(2-Fluoro-3-(Methylsulfonamido)Phenyl)-2-Methylthiazol-5-yl)Pyrimidin-2-yl]Amino}-N-Hydroxyheptanamide], the half-maximal inhibitory concentration (IC50) at HDAC1 is 71 nM; on BRAF^V600E, 258 nM; in the experiment on HCT116 cells, more than 10000 nM; on HDAC6, 21.8 nM; in the experiment on HT-29 cells, more than 10000 nM.
As for `CCS(=O)(=O)Nc1cccc(-c2nc(C)sc2-c2ccnc(NCCCCCCC(=O)NO)n2)c1F` [21e, 7-{[4-(4-(3-(Ethylsulfonamido)-2-Fluorophenyl)-2-Methylthiazol-5-yl)Pyrimidin-2-yl]Amino}-N-Hydroxyheptanamide], the IC50 is 52.2 nM at HDAC1; 107 nM against BRAF^V600E; 9150 nM in the experiment with HCT116 cells; 18.8 nM at HDAC6; more than 10000 nM in the experiment with HT-29 cells.

What is called IC50 is the concentration at which inhibition is half-maximal.
